Test results: ChEMBL document CHEMBL1201862, “PubChem BioAssay data set” (2004)
Each block holds one compound with its values, some of them ahead of it. Active and inactive are the calls of the source.

Columns and labels:
Type in all cases: functional
Coagulation factor XII [1] = molecular target: T1, Coagulation factor XII (Homo sapiens, UniProt P00748); test: Factor XIIa Dose Response Confirmation from Single Well HTS. [Related pubchem assays (depositor defined):AID701]
T1 sequence (P00748 whole entry): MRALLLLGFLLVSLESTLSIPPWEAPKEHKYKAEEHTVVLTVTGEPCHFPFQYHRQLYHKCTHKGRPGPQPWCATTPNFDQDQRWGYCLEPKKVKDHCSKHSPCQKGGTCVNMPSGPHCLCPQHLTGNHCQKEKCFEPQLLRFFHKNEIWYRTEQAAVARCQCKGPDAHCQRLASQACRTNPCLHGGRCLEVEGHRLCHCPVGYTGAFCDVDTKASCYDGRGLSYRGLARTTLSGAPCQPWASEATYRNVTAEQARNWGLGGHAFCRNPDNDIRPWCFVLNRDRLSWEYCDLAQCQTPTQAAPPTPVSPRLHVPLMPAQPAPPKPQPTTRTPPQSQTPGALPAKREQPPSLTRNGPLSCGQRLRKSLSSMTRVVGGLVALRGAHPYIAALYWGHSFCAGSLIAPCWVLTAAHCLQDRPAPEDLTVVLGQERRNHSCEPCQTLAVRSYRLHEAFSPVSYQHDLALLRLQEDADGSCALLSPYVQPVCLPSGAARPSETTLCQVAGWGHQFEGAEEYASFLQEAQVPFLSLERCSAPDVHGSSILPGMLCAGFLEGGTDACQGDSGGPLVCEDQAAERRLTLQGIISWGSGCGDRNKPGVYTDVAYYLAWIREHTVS

Vero [2] = test: cytotoxicity of synthesized analogs in Vero 76, SAR follow-up, cytotoxicity control for West Nile virus antiviral project, Vero 76 cells (AID 2414); conditions: Chlorocebus sabaeus
Vero [3] = test: Vero E6 cell cytotoxicity, SAR follow-up, cytotoxicity control for West Nile virus antiviral project, synthesized analogs (AID 2244); conditions: Chlorocebus sabaeus
Vero [4] = test: West Nile virus CPE inhibition, SAR follow-up, cell-based, synthesized analogs (AID 2238); conditions: Chlorocebus sabaeus
Coagulation factor XII [5] = molecular target: T1, Coagulation factor XII; test: FXIIa inhibitor potency, concentration-response, biochemical (AID 716)
[6] = molecular target: G-protein coupled receptor 55 (Homo sapiens, UniProt Q9Y2T6); test: GPR55 antagonists blocking LPI-driven arrestin recruitment, primary screen, imaging, U2OS, beta-arrestin-GFP, LPI agonist (AID 2013);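 also: antagonist potency measured as reduced agonist-driven arrestin aggregation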
Chain of G-protein coupled receptor 55 (Q9Y2T6 whole entry): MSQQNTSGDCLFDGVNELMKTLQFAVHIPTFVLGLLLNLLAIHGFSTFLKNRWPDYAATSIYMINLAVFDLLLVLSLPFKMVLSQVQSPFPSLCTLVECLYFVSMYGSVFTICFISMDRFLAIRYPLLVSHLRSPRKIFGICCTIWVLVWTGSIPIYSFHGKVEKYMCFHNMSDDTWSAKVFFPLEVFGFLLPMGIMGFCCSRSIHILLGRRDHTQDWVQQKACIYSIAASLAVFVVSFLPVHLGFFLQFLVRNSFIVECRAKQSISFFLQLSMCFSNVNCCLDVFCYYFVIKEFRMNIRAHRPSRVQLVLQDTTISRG

IC50 (Coagulation factor XII [1]): > 50 µM (inactive)
Structure (SMILES): Cc1ccc(NC(=O)C2(S(=O)(=O)c3ccc(C)cc3)CC2)cc1

Structure (SMILES): O=C(CSc1nc2ccccc2c(=O)n1-c1ccccc1)Nc1ccc2c(c1)CCC2
CC50 (Vero [2]): > 66.6 µM (active)
CC50 (Vero [3]): > 40 µM (active)
IC50 (Vero [4]): 15.5 µM (active)

IC50 (Coagulation factor XII [5]): > 50 µM (inactive)
Structure (SMILES): Cc1c(C(=O)OCCOC(C)C)[nH]c2c1C(=O)CC(C)(C)C2

IC50 [6]: 1.12 µM (active)
Structure (SMILES): N#C/C(=C/c1c[nH]nc1-c1cccc(Br)c1)C(=O)O
